What all share (test): cell-based
One experiment has as its target T1, Kv1.2 (Homo sapiens, UniProt P16389).
T1 construct: expressed in transfected cells; host or cells: Chinese Hamster Ovary (CHO)
The settings on record: CHO cells, whole-cell patch clamp; read-out: Potency IC50 (nM) Kv1.2.

The target of another experiment is T2, Kv1.6 (Homo sapiens, UniProt P17658).
T2 construct: expressed in transfected cells; host or cells: Chinese Hamster Ovary (CHO)
The settings on record: for IC50: CHO cells, whole-cell patch clamp, read-out: Potency IC50 (nM) Kv1.6; for Selectivity Kv1.6/Kv1.3: ratio IC50[Kv1.6]/IC50[Kv1.3]. (In general: The patch-clamp technique gives a direct electrical read-out from membranes.)

In experiment [1] the target is T3, human Kv1.3 voltage-gated K+ channel (Homo sapiens, UniProt P22001).
T3 construct: host or cells: CHO-DUKX
T3 sequence (P22001 whole entry): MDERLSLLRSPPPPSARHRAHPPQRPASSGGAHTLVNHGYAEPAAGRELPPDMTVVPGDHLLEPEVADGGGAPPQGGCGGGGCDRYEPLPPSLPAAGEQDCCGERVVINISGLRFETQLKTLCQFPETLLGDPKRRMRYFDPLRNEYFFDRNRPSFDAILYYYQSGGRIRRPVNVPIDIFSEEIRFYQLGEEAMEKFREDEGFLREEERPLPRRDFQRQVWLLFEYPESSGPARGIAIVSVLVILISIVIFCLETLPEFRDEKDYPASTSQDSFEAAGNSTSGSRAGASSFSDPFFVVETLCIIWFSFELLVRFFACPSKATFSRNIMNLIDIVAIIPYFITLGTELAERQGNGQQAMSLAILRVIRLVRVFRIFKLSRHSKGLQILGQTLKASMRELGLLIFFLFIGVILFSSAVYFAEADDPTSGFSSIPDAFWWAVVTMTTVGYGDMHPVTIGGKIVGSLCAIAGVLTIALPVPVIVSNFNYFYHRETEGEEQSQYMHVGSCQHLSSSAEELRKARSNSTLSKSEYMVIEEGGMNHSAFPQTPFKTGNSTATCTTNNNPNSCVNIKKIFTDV
Conditions: inhibition of thallium flux, CHO-DUKX cells with human Kv1.3; read-out: IC50.

The target of the next experiment is T4, Kv1.3 (Homo sapiens, UniProt P22001).
T4 construct: expressed in transfected cells; host or cells: Chinese Hamster Ovary (CHO)
T4 sequence (P22001 whole entry): as above
The settings on record: CHO cells, whole-cell patch clamp; read-out: Potency IC50 (nM) Kv1.3.

Another experiment deals with T5, Kv1.1 (Homo sapiens, UniProt Q09470).
T5 construct: expressed in transfected cells; host or cells: Chinese Hamster Ovary (CHO)
T5 sequence (Q09470 whole entry): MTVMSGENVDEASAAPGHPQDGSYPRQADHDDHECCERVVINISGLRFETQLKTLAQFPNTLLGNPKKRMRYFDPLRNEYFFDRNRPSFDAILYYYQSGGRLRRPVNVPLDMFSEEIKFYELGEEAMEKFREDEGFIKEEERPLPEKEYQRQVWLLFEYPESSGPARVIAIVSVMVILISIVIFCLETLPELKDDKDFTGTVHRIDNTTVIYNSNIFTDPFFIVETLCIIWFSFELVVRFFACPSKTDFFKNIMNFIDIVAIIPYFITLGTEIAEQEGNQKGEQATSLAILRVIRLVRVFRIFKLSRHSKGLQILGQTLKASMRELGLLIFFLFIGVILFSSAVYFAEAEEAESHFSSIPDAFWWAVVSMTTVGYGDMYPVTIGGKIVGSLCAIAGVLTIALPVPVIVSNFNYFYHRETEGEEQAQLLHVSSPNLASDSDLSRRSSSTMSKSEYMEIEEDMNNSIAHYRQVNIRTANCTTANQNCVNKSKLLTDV
Conditions: for IC50: CHO cells, whole-cell patch clamp, read-out: Potency IC50 (nM) Kv1.1; for Selectivity Kv1.1/Kv1.3: ratio IC50[Kv1.1]/IC50[Kv1.3].

Bridge positions count the residues as written; N and C are the ends. Square brackets hold non-standard residues; d marks the D form. Peptide text beside a SMILES is read from it. Nle = CCCC[C@H](N)C(=O)O Some results are limits rather than exact numbers.

As usually defined, the IC50 is the concentration at which inhibition is half-maximal.

T2 sequence (P17658 whole entry): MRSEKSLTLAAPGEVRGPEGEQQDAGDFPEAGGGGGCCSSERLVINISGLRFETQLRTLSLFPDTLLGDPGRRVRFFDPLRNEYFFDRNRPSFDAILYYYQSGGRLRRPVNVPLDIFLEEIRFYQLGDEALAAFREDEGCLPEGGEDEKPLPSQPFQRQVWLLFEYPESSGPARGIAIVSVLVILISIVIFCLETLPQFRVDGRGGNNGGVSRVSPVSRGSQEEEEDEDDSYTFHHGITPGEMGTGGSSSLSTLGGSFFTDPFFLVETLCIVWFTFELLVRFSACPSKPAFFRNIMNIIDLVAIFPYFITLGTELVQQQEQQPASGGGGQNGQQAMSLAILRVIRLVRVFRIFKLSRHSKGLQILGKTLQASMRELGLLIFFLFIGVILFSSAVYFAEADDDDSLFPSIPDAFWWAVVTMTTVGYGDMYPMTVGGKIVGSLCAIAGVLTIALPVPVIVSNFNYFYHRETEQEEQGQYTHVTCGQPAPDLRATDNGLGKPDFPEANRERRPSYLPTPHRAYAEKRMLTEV
T1 sequence (P16389 whole entry): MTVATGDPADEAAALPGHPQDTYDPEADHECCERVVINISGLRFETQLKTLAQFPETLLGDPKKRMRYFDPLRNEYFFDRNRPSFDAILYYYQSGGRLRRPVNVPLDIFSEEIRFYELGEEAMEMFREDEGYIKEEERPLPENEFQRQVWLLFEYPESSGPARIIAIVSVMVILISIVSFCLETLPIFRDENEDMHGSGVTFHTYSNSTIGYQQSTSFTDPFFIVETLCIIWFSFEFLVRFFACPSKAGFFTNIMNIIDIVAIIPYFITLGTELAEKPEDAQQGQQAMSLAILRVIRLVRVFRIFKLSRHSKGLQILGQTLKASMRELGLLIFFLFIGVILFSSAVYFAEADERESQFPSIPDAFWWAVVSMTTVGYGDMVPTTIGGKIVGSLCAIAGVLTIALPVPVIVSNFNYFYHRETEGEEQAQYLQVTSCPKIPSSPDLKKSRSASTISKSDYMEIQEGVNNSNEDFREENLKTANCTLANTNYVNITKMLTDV

For `CCCC[C@@H]1NC(=O)[C@@H]2CSSC[C@H](NC(=O)[C@H](CCCNC(=N)N)NC(=O)[C@H](CCCC)NC(=O)[C@H](CC(=O)O)NC(=O)[C@H](CCCC)NC(=O)[C@@H](N)CC(N)=O)C(=O)N[C@@H](CO)C(=O)N[C@@H](C)C(=O)N[C@@H](CO)C(=O)N[C@@H](C(C)C)C(=O)N[C@@H](CCC(=O)O)C(=O)N[C@H]3CSSC[C@H](NC(=O)[C@H](CCCCN)NC(=O)[C@H](CCCCN)NC(=O)[C@H](CC(N)=O)NC1=O)C(=O)N[C@@H](CCCCN)C(=O)N[C@H](C(=O)N[C@@H](Cc1ccc(O)cc1)C(=O)N1CCC[C@H]1C(=O)N[C@@H](CCCNC(=N)N)C(N)=O)CSSC[C@H](NC(=O)[C@H](CCCCN)NC(=O)[C@H](CCCCN)NC(=O)[C@H](CCCCN)NC3=O)C(=O)N[C@@H](CC(C)C)C(=O)N[C@@H](CCCCN)C(=O)N[C@@H](C)C(=O)N[C@@H]([C@@H](C)CC)C(=O)NCC(=O)N[C@@H](CO)C(=O)N[C@@H]([C@@H](C)CC)C(=O)N[C@@H](Cc1ccccc1)C(=O)NCC(=O)N[C@@H](CCCCN)C(=O)N2` [Compound 45] (H-N[Nle]D[Nle]RCSASVECKKKCLKAIGSIFGKC[Nle]NKKCKCYPR-NH2; disulfide 6-27, 12-32, 16-34), the half-inhibitory concentration (IC50) was 257 nM on Kv1.2; above 3000 nM on Kv1.6; 0.16 nM in experiment [1]; 0.75 nM at Kv1.3; above 3000 nM on Kv1.1. For the same compound, on Kv1.6, the “Selectivity Kv1.6/Kv1.3” value is above 4000. Also, the “Selectivity Kv1.1/Kv1.3” value on Kv1.1 is given as above 4000.

Consider `CC[C@H](C)[C@@H]1NC(=O)[C@H](C)NC(=O)[C@H](CC(C)C)NC(=O)[C@@H]2CSSC[C@@H](C(=O)N[C@@H](Cc3ccc(O)cc3)C(=O)N3CCC[C@H]3C(=O)N[C@@H](CCCNC(=N)N)C(N)=O)NC(=O)[C@H](CCCCN)NC(=O)[C@@H]3CSSC[C@H](NC(=O)[C@H](CCC(=O)O)NC(=O)[C@H](C(C)C)NC(=O)[C@H](CO)NC(=O)[C@H](C)NC(=O)[C@H](CO)NC(=O)[C@@H](NC(=O)[C@H](CCCNC(=N)N)NC(=O)[C@H](CCSC)NC(=O)[C@H](CC(=O)O)NC(=O)[C@H](CCSC)NC(=O)[C@@H](N)CC(N)=O)CSSC[C@H](NC(=O)[C@H](CCCCN)NC(=O)CNC(=O)[C@H](Cc4ccccc4)NC(=O)[C@H]([C@@H](C)CC)NC(=O)[C@H](CO)NC(=O)CNC1=O)C(=O)N[C@@H](CCSC)C(=O)N[C@@H](CC(N)=O)C(=O)N[C@@H](CCCCN)C(=O)N[C@@H](CCCCN)C(=O)N3)C(=O)N[C@@H](CCCCN)C(=O)N[C@@H](CCC(N)=O)C(=O)N[C@@H](CCCCN)C(=O)N2` [Compound 54] (H-NMDMRCSASVECKQKCLAIGSIFGKCMNKKCKCYPR-NH2; disulfide 6-26, 12-31, 16-33), for which the half-inhibitory concentration (IC50) was 291 nM at Kv1.2; above 3000 nM on Kv1.6; 0.46 nM in experiment [1]; 2.41 nM at Kv1.3; above 3000 nM at Kv1.1. On Kv1.6, the “Selectivity Kv1.6/Kv1.3” value was above 1200. Moreover, on Kv1.1, the “Selectivity Kv1.1/Kv1.3” value was above 1200.

On to `CC[C@H](C)[C@@H]1NC(=O)[C@H](CCCNC(=N)N)NC(=O)[C@H](CCCCN)NC(=O)[C@H](CC(C)C)NC(=O)[C@@H]2CSSC[C@@H](C(=O)N[C@@H](Cc3ccc(O)cc3)C(=O)N3CCC[C@H]3C(=O)N[C@@H](CCCNC(=N)N)C(N)=O)NC(=O)[C@H](CCCCN)NC(=O)[C@@H]3CSSC[C@H](NC(=O)[C@H](CCC(=O)O)NC(=O)[C@H](C(C)C)NC(=O)[C@H](CO)NC(=O)[C@H](C)NC(=O)[C@H](CO)NC(=O)[C@@H](NC(=O)[C@H](CCCNC(=N)N)NC(=O)[C@H](CCSC)NC(=O)[C@H](CC(=O)O)NC(=O)[C@H](CCSC)NC(=O)[C@@H](N)CC(N)=O)CSSC[C@H](NC(=O)[C@H](CCCCN)NC(=O)CNC(=O)[C@H](Cc4ccccc4)NC(=O)[C@H]([C@@H](C)CC)NC(=O)[C@H](CO)NC(=O)CNC1=O)C(=O)N[C@@H](CCSC)C(=O)N[C@@H](CC(N)=O)C(=O)N[C@@H](CCCCN)C(=O)N[C@@H](CCCCN)C(=O)N3)C(=O)N[C@@H](CCCCN)C(=O)N[C@@H](CCC(N)=O)C(=O)N[C@@H](CCCCN)C(=O)N2` [Compound 56] (H-NMDMRCSASVECKQKCLKRIGSIFGKCMNKKCKCYPR-NH2; disulfide 6-27, 12-32, 16-34), for which the IC50 was 57 nM at Kv1.2; 932 nM on Kv1.6; 0.087 nM in experiment [1]; 0.3 nM at Kv1.3; above 3000 nM at Kv1.1. Further, the “Selectivity Kv1.1/Kv1.3” value at Kv1.1 is above 9900.

On to `CC[C@H](C)[C@@H]1NC(=O)[C@H](CO)NC(=O)CNC(=O)[C@H](Cc2ccc(O)cc2)NC(=O)[C@H](C)NC(=O)[C@H](CCCCN)NC(=O)[C@H](CC(C)C)NC(=O)[C@@H]2CSSC[C@@H](C(=O)N[C@@H](Cc3ccc(O)cc3)C(=O)N3CCC[C@H]3C(=O)N[C@@H](CCCNC(=N)N)C(N)=O)NC(=O)[C@H](CCCCN)NC(=O)[C@@H]3CSSC[C@H](NC(=O)[C@H](CCC(=O)O)NC(=O)[C@H](C(C)C)NC(=O)[C@H](CO)NC(=O)[C@H](C)NC(=O)[C@H](CO)NC(=O)[C@@H](NC(=O)[C@H](CCCNC(=N)N)NC(=O)[C@H](CCSC)NC(=O)[C@H](CC(=O)O)NC(=O)[C@H](CCSC)NC(=O)[C@@H](N)CC(N)=O)CSSC[C@H](NC(=O)[C@H](CCCCN)NC(=O)CNC(=O)[C@H](Cc4ccccc4)NC1=O)C(=O)N[C@@H](CCSC)C(=O)N[C@@H](CC(N)=O)C(=O)N[C@@H](CCCCN)C(=O)N[C@@H](CCCCN)C(=O)N3)C(=O)N[C@@H](CCCCN)C(=O)N[C@@H](CCC(N)=O)C(=O)N[C@@H](CCCCN)C(=O)N2` [Compound 58] (H-NMDMRCSASVECKQKCLKAYGSIFGKCMNKKCKCYPR-NH2; disulfide 6-27, 12-32, 16-34), for which the concentration for half-maximal inhibition (IC50) at Kv1.2 was 145 nM; on Kv1.6, above 3000 nM; in experiment [1], 0.11 nM; on Kv1.3, 0.34 nM; at Kv1.1, above 3000 nM. Moreover, the “Selectivity Kv1.6/Kv1.3” value at Kv1.6 is recorded as above 8800. Also, the “Selectivity Kv1.1/Kv1.3” value at Kv1.1 was above 8800.

Turning to `CCCC[C@H](NC(=O)[C@H](CC(=O)O)NC(=O)[C@H](CCCC)NC(=O)[C@@H](N)CO)C(=O)N[C@@H](CCCNC(=N)N)C(=O)N[C@H]1CSSC[C@@H]2NC(=O)[C@H](CCCCN)NC(=O)CNC(=O)[C@H](Cc3ccccc3)NC(=O)[C@H]([C@@H](C)CC)NC(=O)[C@H](CO)NC(=O)CNC(=O)[C@H]([C@@H](C)CC)NC(=O)[C@H](C)NC(=O)[C@H](CCCCN)NC(=O)[C@H](CC(C)C)NC(=O)[C@@H]3CSSC[C@@H](C(=O)N[C@@H](Cc4ccc(O)cc4)C(=O)N4CCC[C@H]4C(=O)N[C@@H](CCCNC(=N)N)C(N)=O)NC(=O)[C@H](CCCCN)NC(=O)[C@H](CSSC[C@H](NC(=O)[C@H](CCC(=O)O)NC(=O)[C@H](C(C)C)NC(=O)[C@H](CO)NC(=O)[C@H](C)NC(=O)[C@H](CO)NC1=O)C(=O)N[C@@H](C)C(=O)N[C@@H](CCC(N)=O)C(=O)N[C@@H](CO)C(=O)N3)NC(=O)[C@H](CCCCN)NC(=O)[C@H](CCCCN)NC(=O)[C@H](CC(N)=O)NC(=O)[C@H](CCSC)NC2=O` [Compound 79] (H-S[Nle]D[Nle]RCSASVECAQSCLKAIGSIFGKCMNKKCKCYPR-NH2; disulfide 6-27, 12-32, 16-34), the half-inhibitory concentration (IC50) on Kv1.2 was 1150 nM; on Kv1.6, above 3000 nM; in experiment [1] it was 0.13 nM; on Kv1.3 it was 0.21 nM; at Kv1.1, above 3000 nM. On Kv1.6, the “Selectivity Kv1.6/Kv1.3” value is above 14600. In addition, at Kv1.1, the “Selectivity Kv1.1/Kv1.3” value is recorded as above 14600.
